Reference: US6632817B2, “Fluoromethoximino compounds” (priority 1997, dated 2003)

How the values were obtained:
Plasmopara viticola = assay: Plasmopara test (grapevine)/protective; type: in vivo; details: Plasmopara viticola, 144 h, protective, application rate 100 g/ha, evaluation 6 days after inoculation, read-out: Efficacy in %
Description: Plasmopara Test (Grapevine)/Protective
(§1) Solvent: 47 parts by weight of acetone
(§2) Emulsifier: 3 parts by weight of alkylaryl polyglycol ether
(§3) To produce a suitable preparation of active compound, 1 part by weight of active compound is mixed with the stated amounts of solvent and emulsifier, and the concentrate is diluted with water to the desired concentration.
To test for protective activity, young plants are sprayed with the preparation of active compound at the stated application rate. After the spray coating has dried on, the plants are inoculated with an aqueous spore suspension of Plasmopara viticola and then remain in an incubation cabin at approximately 20° C. and 100% relative atmospheric humidity for 1 day. The plants are subsequently placed in a greenhouse at approximately 21° C. and approximately 90% relative atmospheric humidity for 5 days. The plants are then moistened and placed in an incubation cabin for 1 day.
Evaluation is carried out 6 days after the inoculation. 0% means an efficacy which corresponds to that of the control, whereas an efficacy of 100% means that no infection is observed.

Venturia inaequalis = assay: Venturia test (apple)/protective; type: in vivo; details: Venturia inaequalis, 288 h, protective, application rate 10 g/ha, evaluation 12 days after inoculation, read-out: Efficacy in %
Description: Venturia Test (Apple)/Protective
as §1, §2, §3
To test for protective activity, young plants are sprayed with the preparation of active compound at the stated application rate. After the spray coating has dried on, the plants are inoculated with an aqueous conidia suspension of the causative organism of apple scab Venturia inaequalis and then remain in an incubation cabin at approximately 20° C. and 100% relative atmospheric humidity for 1 day.
The plants are then placed in a greenhouse at approximately 21° C. and a relative atmospheric humidity of approximately 90%.
Evaluation is carried out 12 days after the inoculation. 0% means an efficacy which corresponds to that of the control, whereas an efficacy of 100% means that no infection is observed.

Puccinia recondita = assay: Puccinia test (wheat)/protective; type: in vivo; details: Puccinia recondita, 240 h, protective, application rate 250 g/ha, evaluation 10 days after inoculation, read-out: Efficacy in %
Description: Puccinia Test (Wheat)/Protective
(§4) Solvent: 25 parts by weight of N,N-dimethylacetamide
(§5) Emulsifier: 0.6 part by weight of alkylaryl polyglycol ether
as §3
To test for protective activity, young plants are sprayed with the preparation of active compound at the stated application rate. After the spray coating has dried on, the plants are sprayed with a conidia suspension of Puccinia recondita. The plants remain in an incubation cabin at 20° C. and 100% relative atmospheric humidity for 48 hours.
The plants are then placed in a greenhouse at a temperature of approximately 20° C. and a relative atmospheric humidity of 80% to promote the development of rust pustules.
(§6) Evaluation is carried out 10 days after the inoculation. 0% means an efficacy which corresponds to that of the control, whereas an efficacy of 100% means that no infection is observed.

Puccinia recondite = assay: Puccinia test (wheat)/curative; type: in vivo; details: curative, application rate 250 g/ha, evaluation 10 days after inoculation
Description: Puccinia Test (Wheat)/Curative
as §4, §5, §3
To test for curative activity, young plants are sprayed with a conidia suspension of Puccinia recondite. The plants remain in an incubation cabin at 20° C. and 100% relative atmospheric humidity for 48 hours. The plants are subsequently sprayed with the preparation of active compound at the stated application rate.
The plants are placed in a greenhouse at a temperature of approximately 20° C. and a relative atmospheric humidity of approximately 80% to promote the development of rust pustules.
as §6

[1] = logP determination by HPLC (EEC Directive 79/831 Annex V. A8); type: physicochemical; details: HPLC gradient method, acetonitrile/0.1% aqueous phosphoric acid
Description: The logP values are determined in accordance with EEC Directive 79/831 Annex V. A8 by HPLC (gradient method, acetonitrile/0.1% aqueous phosphoric acid).

| SMILES | melting point | chromatographic logP [1] | pest or weed control at 100 g/ha (Plasmopara viticola) | pest or weed control at 10 g/ha (Venturia inaequalis) | pest or weed control at 250 g/ha (Puccinia recondita) | Efficacy in % (Puccinia recondite) |
| --- | --- | --- | --- | --- | --- | --- |
| CNC(=O)/C(=N\OCF)c1ccccc1Oc1ncnc(Oc2cccc(Cl)c2C)c1F [Example 4] |  | 3.5 | ≥ 98% | ≥ 99% |  | 100% |
| CNC(=O)/C(=N\OCF)c1ccccc1Oc1ncnc(Oc2ccccc2OC(F)F)c1F [Example 6] |  | 2.9 | ≥ 98% | ≥ 99% | ≥ 80% | 100% |
| CNC(=O)/C(=N\OCF)c1ccccc1Oc1nc(-c2ccc(OC(F)(F)F)cc2)ns1 [Example 22] |  | 3.8 | ≥ 98% | ≥ 99% | ≥ 80% | 100% |
| CNC(=O)/C(=N\OCF)c1ccccc1Oc1nc(-c2cccc(C(F)(F)F)c2)ns1 [Example 28] |  | 3.6 | ≥ 98% | ≥ 99% | ≥ 80% | 100% |
| CNC(=O)C(=NOCF)c1ccccc1Oc1ncnc(Oc2ccccc2Cl)c1F [drawing 98] |  |  |  |  |  | 100% |
| CNC(=O)/C(=N\OCF)c1ccccc1Oc1ncnc(Oc2cccc(Cl)c2C)c1F [drawing 99] |  |  |  |  |  | 100% |
| CNC(=O)/C(=N\OCF)c1ccccc1Oc1ncnc(Oc2ccccc2OC(F)F)c1F [drawing 100] |  |  |  |  |  | 100% |
| CNC(=O)C(NOCF)c1ccccc1Oc1ncnc(Oc2ccccc2[N+](=O)[O-])c1F (stereo not drawn) [drawing 101] |  |  |  |  |  | 100% |
| CNC(=O)/C(=N\OCF)c1ccccc1Oc1ncnc(Oc2ccccc2C#N)c1F [drawing 102] |  |  |  |  |  | 100% |
| CNC(=O)/C(=N\OCF)c1ccccc1Oc1nc(-c2cccc(C(F)(F)F)c2)ns1 [drawing 103] |  |  |  |  |  | 100% |
| CNC(=O)/C(=N\OCF)c1ccccc1Oc1nc(-c2ccc(OC(F)(F)F)cc2)ns1 [drawing 104] |  |  |  |  |  | 100% |
| CNC(=O)/C(=N\OCF)c1ccccc1Oc1ncnc(Oc2ccccc2Cl)c1F [drawing 105] |  |  |  |  |  | 100% |

Further lines, with some results ahead:

| melting point | chromatographic logP [1] | SMILES | pest or weed control at 100 g/ha (Plasmopara viticola) | pest or weed control at 10 g/ha (Venturia inaequalis) | pest or weed control at 250 g/ha (Puccinia recondita) | Efficacy in % (Puccinia recondite) |
| --- | --- | --- | --- | --- | --- | --- |
| 153 to 155 °C |  | COC(=O)C(=NOCF)c1ccccc1Oc1ncnc(Oc2ccccc2Cl)c1F [Example 1, methyl {2-[6-(2-chlorophenoxy)-5-fluoropyrimidin-4-yloxy]-phenyl}-fluoromethoxyimino-acetate] | ≥ 98% | ≥ 99% | ≥ 80% |  |
| 128 to 129 °C |  | CNC(=O)C(=NOCF)c1ccccc1Oc1ncnc(Oc2ccccc2Cl)c1F [Example 2, 2-{2-[6-(2-chlorophenoxy)-5-fluoropyrimidin-4-yloxy]-phenyl}-2-fluoromethoxyimino-N-methylacetamide] | ≥ 98% | ≥ 99% | ≥ 80% | 100% |
|  | 2.8 | CNC(=O)/C(=N\OCF)c1ccccc1Oc1ncnc(Oc2ccccc2C#N)c1F [Example 10] | ≥ 98% |  | ≥ 80% | 100% |
|  | 3.7 | CNC(=O)/C(=N\OCF)c1ccccc1Oc1nc(-c2ccc(C(F)(F)F)cc2)ns1 [Example 19] | ≥ 98% | ≥ 99% | ≥ 80% |  |
|  | 3.2 | CNC(=O)/C(=N\OCF)c1ccccc1Oc1nc(-c2ccc(OC(F)F)cc2)ns1 [Example 26] | ≥ 98% | ≥ 99% | ≥ 80% |  |
